This note sets out measurements from PMC6450558 (Angewandte Chemie (International ed. in English), 2019).

This experiment concerns the target T1, human ST6Gal-I (Homo sapiens, UniProt P15907).
T1 sequence (P15907 1-406): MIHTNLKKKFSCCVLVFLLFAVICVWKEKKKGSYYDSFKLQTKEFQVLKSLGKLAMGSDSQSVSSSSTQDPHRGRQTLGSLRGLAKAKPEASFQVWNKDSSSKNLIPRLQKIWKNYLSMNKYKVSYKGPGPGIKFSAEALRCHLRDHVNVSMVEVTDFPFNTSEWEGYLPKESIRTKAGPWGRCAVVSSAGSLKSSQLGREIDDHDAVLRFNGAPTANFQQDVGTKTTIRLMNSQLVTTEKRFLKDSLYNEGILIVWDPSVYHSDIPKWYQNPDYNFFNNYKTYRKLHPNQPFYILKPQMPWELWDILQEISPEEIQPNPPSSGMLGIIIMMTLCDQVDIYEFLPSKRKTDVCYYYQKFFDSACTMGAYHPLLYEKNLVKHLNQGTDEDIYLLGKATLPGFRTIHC
Nature of the experiment: sialyltransferase kinetics, donor varied. It counts as biochemical. To be noted: read-out: ST6Gal-I / KM(app); acceptor LacNAc-butyl (11), fixed concentration.

On to CMP-Neu9NSydCl [compound 9], for which the Km was determined as 86 ± 21 µM.
